Data taken from US20100297159A1, “THOMSEN-FRIEDENREICH DISACCHARIDE MODIFIED IMMUNOGEN (TFD), PREPARATION PROCEDURE, COMPOSITIONS COMPRISING IT, USES, AND TREATMENT METHODS” (CONSEJO NACIONAL DE INVESTIGACIONES CIETIFICAS Y TECNICAS …, priority 2007, published 2010).
pIC50: −log10 of the molar value. Like-named read-outs stand apart in the source and are kept apart here.

Tests used:
[1] = tested on: TFD-BSA antigen / IgG, IgM antibodies interaction; assay: Competition ELISA, inhibition of antibody interaction with TFD-BSA antigen; assay type: binding, mice; settings: for pIC50: antisera from BzlαTFD-Lys5-KLHs immunization; for Inhibitory effect in the interaction of TFD-BSA/antigen T-IgG/IgM antibodies: competition ELISA, TFD-BSA and antigen T, in words
Description: (§1) Target antigens (10 μg/ml) were adhered to multi-well plates of polystirene in saline phosphate buffer (PBS; 10 mM sodium phosphate, pH 7.2 and 150 mM NaCl) overnight at 4° C. Glycolipids were diluted in methanol and dried for 1 hour at 60° C. After covering the wells with the antigens, these were saturated with PBS-1% BSA-0.05% Tween 20 for 1 hour at 37° C. Serial dilutions of antiserum were incubates with the antigen for 2 hours at room temperature, and then washed 5 times with PBS. The adhered antigen-antibody complex was detected with a 1/1000 dilution of anti-IgG goat antibody or mouse IgM conjugated with peroxydase in PBS-0.05% Tween 20 (PBS-T), incubates at room temperature for 1 hour, and washed 5 times with PBS. Color reaction was developed as described for ELA.
(§2) The three antibodies showing highest anti-TFD and anti-antigen T levels were analyzed by competition ELISA, and results were averaged. Optimum antiserum dilutions with an optical density of 1.0 against TFD-BSA and T-MUC1 (10 μg/ml) as blanc antigen were determined in preliminary experiments. Competition ELISA stages were equal to those in ELISA, except in that optimal antiserum dilution was pre-incubated with several related antigens in carbohydrates for 1 hour at room temperature before being added to the wells. Minimum concentration of carbohydrates required for 50% inhibition (ID50) of antigen-antibody interaction is a more specific parameter.

[2] = tested on: T-MUC1 antigen / IgG, IgM antibodies interaction; assay: Competition ELISA, inhibition of antibody interaction with T-MUC1 antigen; assay type: binding, mice; settings: antisera from BzlαTFD-Lys5-KLHs immunization
Description: as §1, §2

[3] = tested on: HT29 tumor cell / antibody interaction; assay: Competition ELISA of cells, inhibition of antibody interaction with HT29 tumor cells; assay type: cell-based, human; settings: for Inhibitory effect, IgM mediated interaction: in words; for Inhibitory effect relative to BzlαTFD, IgM mediated interaction: times less inhibitory effect than BzlαTFD
Description: Level of antibodies against epithelial tumor cells was determined using lines HT29, MCF7, and T47D. Tumor cells were cultured to sub-comfluence in media recommended by ATCC, and harvested by treatment with trypsin. They were adsorbed to multi-well plates, fixed with cold methanol for […] and saturated with PBS-T for 1 hour at room temperature. ELISA of cells was carried out by incubating serial dilutions of mouse sera against the different tumor lines for 2 hours at room temperature in PBS, and then was washed 4 times with PBS-T. The adhered antigen-antibody complex was detected with a 1/1000 dilution of anti-IgG goat antibody or mouse IgM conjugated to a peroxidase in PBS-T, incubated for 1 hour at room temperature, and washed […] PBS-T. Color reaction was developed as described for ELA. Steps for competition ELISA of cells were the same as for ELISA of cells, except in that the optimum anti-sera dilution was pre-incubated with several antigens related to carbohydrates for 1 hour at room temperature prior to the addition to the plate wells.

[4] = IgG, read-out: Concentration required to produce 50% inhibition (IC50), TFD-BSA antigen, IgG
[5] = IgM, read-out: Concentration required to produce 50% inhibition (IC50), TFD-BSA antigen, IgM
[6] = IgG, read-out: Concentration required to produce 50% inhibition (IC50), T-MUC1 antigen, IgG
[7] = IgM, read-out: Concentration required to produce 50% inhibition (IC50), T-MUC1 antigen, IgM
[8] = Homo sapiens, HT-29, HT29, IgG, read-out: Concentration requested to produce 50% inhibition (IC50), antibodies with HT29 tumor cell interaction, IgG
[9] = Homo sapiens, HT-29, HT29, IgM, read-out: Concentration requested to produce 50% inhibition (IC50), antibodies with HT29 tumor cell interaction, IgM
[10] = HT29, IgG, read-out: Concentration requested to produce 50% inhibition (IC50), antibodies with HT29 tumor cell interaction, IgG
[11] = HT29, IgM, read-out: Concentration requested to produce 50% inhibition (IC50), antibodies with HT29 tumor cell interaction, IgM

| pIC50 [1, 4] | pIC50 [1, 5] | pIC50 [2, 6] | pIC50 [2, 7] | pIC50 [3, 8] | pIC50 [3, 9] | pIC50 [3, 10] | pIC50 [3, 11] | SMILES | Inhibitory effect in the interaction of TFD-BSA/antigen T-IgG/IgM antibodies [1] | Inhibitory effect, IgM mediated interaction ([3]; HT29) | Inhibitory effect relative to BzlαTFD, IgM mediated interaction ([3]; HT29) [times] |
| --- | --- | --- | --- | --- | --- | --- | --- | --- | --- | --- | --- |
| 2.60 | 4.00 | 2.00 | < 2.00 | 2.40 | 2.70 |  |  | CC(=O)NC1C(OCc2ccccc2)OC(CO)C(O)C1OC1OC(CO)C(O)C(O)C1O (centres unmarked) [BzlαTFD] | significant inhibition | greatest inhibitors |  |
| 2.00 | 2.46 | 1.70 | < 1.70 |  |  | < 2.00 | 2.10 | CC(=O)N[C@@H]1[C@@H](O[C@@H]2O[C@H](CO)[C@H](O)[C@H](O)[C@H]2O)[C@@H](O)[C@@H](CO)O[C@@H]1O [TFD, Galβ3GalNAcα] | significant inhibition |  | 4 |
| 1.70 | 1.52 | < 1.00 | < 1.00 | < 1.00 |  |  | 1.70 | CC(=O)NC1C(O)OC(CO)C(O)C1O (centres unmarked) [GalNAc] |  |  | 10 |
|  |  |  |  |  |  | < 2.00 | 2.70 | CC(=O)N[C@H]1[C@@H](Oc2ccc([N+](=O)[O-])cc2)O[C@H](CO)[C@H](O)[C@@H]1O[C@@H]1O[C@H](CO)[C@H](O)[C@H](O)[C@H]1O [pNPαTFD] |  | greatest inhibitors |  |

Continued, compound first:

| SMILES | pIC50 [1, 4] | pIC50 [1, 5] | pIC50 [2, 6] | pIC50 [2, 7] | pIC50 [3, 8] | pIC50 [3, 9] | pIC50 [3, 10] | pIC50 [3, 11] | Inhibitory effect in the interaction of TFD-BSA/antigen T-IgG/IgM antibodies [1] | Inhibitory effect, IgM mediated interaction ([3]; HT29) | Inhibitory effect relative to BzlαTFD, IgM mediated interaction ([3]; HT29) [times] |
| --- | --- | --- | --- | --- | --- | --- | --- | --- | --- | --- | --- |
| OCC1OC(O)C(O)C(O)C1O (centres unmarked) [Gal] |  |  |  |  |  |  |  |  |  | did not show inhibitory effect |  |
| CC(=O)NC1C(O)OC(CO)C(O)C1O (centres unmarked) [GlcNAc] | < 1.00 | < 1.00 | < 1.00 | < 1.00 |  |  | < 1.00 | < 1.00 | did not show any effect | did not show inhibitory effect |  |
| OCC1OC(O)C(O)C(O)C1O (centres unmarked) [Glc] | < 1.00 | < 1.00 | < 1.00 | < 1.00 | < 1.00 | < 1.00 |  |  | did not show any effect |  |  |
| CC(=O)NC1C(OCc2ccccc2)OC(CO)C(O)C1O (centres unmarked) [BzlαGalNAc] | 2.30 | 3.00 | 1.70 | < 1.70 | 2.10 | 2.10 |  |  | significant inhibition |  | 4 |
